According to patent US20240150368A1, “ULK INHIBITORS AND METHODS OF USE THEREOF” (Deciphera Pharmaceuticals, LLC, priority 2022, published 2024):

Assays:
ULK1 kinase = target: T1, ULK1 kinase (Homo sapiens, UniProt O75385, E37A/K38A); experiment: Biochemical assay for ULK1 (coupled pyruvate kinase/lactate dehydrogenase assay); settings: 1 mM ATP, 0.1 nM ULK1; read-out: ULK1 (inhibition of biochemical activity), IC50
T1 construct: (residues 1-283; ID NO: 1); purchased Beryllium
T1 sequence (O75385 1-283 E37A/K38A): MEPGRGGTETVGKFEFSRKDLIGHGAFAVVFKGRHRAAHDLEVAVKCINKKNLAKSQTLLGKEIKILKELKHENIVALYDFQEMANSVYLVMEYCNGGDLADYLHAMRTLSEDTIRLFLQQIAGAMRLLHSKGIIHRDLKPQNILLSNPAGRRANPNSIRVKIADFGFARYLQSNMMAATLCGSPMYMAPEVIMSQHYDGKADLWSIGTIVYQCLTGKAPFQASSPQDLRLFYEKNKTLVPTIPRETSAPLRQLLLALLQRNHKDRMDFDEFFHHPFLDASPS
How it was run: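 IC50 values were fitted to percent inhibition, normalised with no-compound and known-inhibitor controls, using rates from 2–3 h of a 6 h read at 30 °C. ADP was coupled through pyruvate kinase/lactate dehydrogenase to NADH loss at 340 nm.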

ULK2 kinase = target: T2, ULK2 kinase (Homo sapiens, UniProt Q8IYT8); experiment: Biochemical assay for ULK2 (coupled pyruvate kinase/lactate dehydrogenase assay); settings: 1 mM ATP, 1 nM ULK2; read-out: ULK2 (inhibition of biochemical activity), IC50
T2 construct: (residues 1-306 with N-terminal GST and His tag; ID NO: 2); purchased Signal Chem U02-11G
How it was run: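 Continuous PK/LDH-coupled NADH oxidation assay (A340) with 1 nM ULK2, 200 μM ULKtide and 1 mM ATP in Tris pH 7.5, 15 mM MgCl2, 1% DMSO, read 6 h at 30° C. Rates from the 2-3 h window converted to percent inhibition against no-compound and known-inhibitor controls; IC50 by four-parameter sigmoidal fit.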

[1] = system: ULK kinase substrate ATG13 (pS318-ATG13) in HCT-116 cells; experiment: pATG13 levels of mutant KRas HCT-116 cells after treatment with ULK inhibitors in combination with trametinib (ELISA); assay type: cell-based, human
Method: pATG13 Levels of Mutant KRas HCT-116 Cells after Treatment with ULK Inhibitors in Combination with Trametinib
HCT-116 human colon cancer cells (10000 cells/well) were added to a 384-well tissue-culture treated plate in 50 μL of pre-warmed DMEM medium supplemented with 10% characterized fetal bovine serum (Invitrogen, Carlsbad, CA), 100 units/mL penicillin G, and 100 μg/mL streptomycin and allowed to grow overnight at 37° C., 5% CO2, and 95% humidity. The following day, 10 μL of media containing trametinib or DMSO as a control was added to wells. The final concentration of trametinib in wells was 250 nM. A dose response of a test compound (0.6 μL per well) was added. DMSO (0.6 μL) was added to control wells. The plate was briefly shaken to mix wells and then incubated at 37° C. overnight. The next day, the media was aspirated and cells were washed with Dulbecco's Phosphate Buffered Saline (Gibco). Cells were lysed using MPER lysis buffer (Pierce, Rockford, IL) containing Halt Phosphatase and Protease Inhibitors (Pierce, Rockford, IL) and Phosphatase inhibitor cocktail 2 (Sigma, St. Louis, MO) at 4° C. for 10 minutes with shaking.
Cellular levels of phospho-Serine 318 ATG13 (pATG13) were measured via an ELISA method. Total ATG13 Antibody (Cell Signaling Cat #13273) was used to coat the wells. The plate was incubated at 4° C. overnight and washed with ELISA wash buffer (Biolegend Cat #421601). The wells were then blocked with assay diluent (Biolegend Cat #421203) for 1 h at rt. Plate wells were washed with ELISA wash buffer. Cell lysate was added to wells and incubated at rt for 2 h. Plate wells were washed with ELISA wash buffer. Biotinylated pS318-ATG13 antibody (Rockland Immunochemicals Cat #600-401-C49) was diluted in assay diluent and added to each well and incubated at rt for 1 h. Plate wells were washed with ELISA wash buffer. Streptavidin linked to horseradish peroxidase (Thermo Fisher Cat #21140) was diluted in assay diluent and added to each well and incubated at rt for 1 h. Plate wells were washed with ELISA wash buffer. High sensitivity TMB substrate (Biolegend Cat #421101) was added to each well and incubated at rt for 20 minutes. The reaction was stopped with 2.0N sulfuric acid. The plate was analyzed at on a plate reader measuring absorbance at 450 nm and 540 nm (background). Signal was calculated by first subtracting the background absorbance at 540 nm from the absorbance at 450 nm for each well. Next, the background corrected absorbance at 450 nm from blank wells was subtracted from test wells. Data was compared to control wells to determine % ATG13 phosphorylation. GraphPad Prism was used to calculate IC50 values.

T2 sequence (Q8IYT8 with tags, fused parts or gaps): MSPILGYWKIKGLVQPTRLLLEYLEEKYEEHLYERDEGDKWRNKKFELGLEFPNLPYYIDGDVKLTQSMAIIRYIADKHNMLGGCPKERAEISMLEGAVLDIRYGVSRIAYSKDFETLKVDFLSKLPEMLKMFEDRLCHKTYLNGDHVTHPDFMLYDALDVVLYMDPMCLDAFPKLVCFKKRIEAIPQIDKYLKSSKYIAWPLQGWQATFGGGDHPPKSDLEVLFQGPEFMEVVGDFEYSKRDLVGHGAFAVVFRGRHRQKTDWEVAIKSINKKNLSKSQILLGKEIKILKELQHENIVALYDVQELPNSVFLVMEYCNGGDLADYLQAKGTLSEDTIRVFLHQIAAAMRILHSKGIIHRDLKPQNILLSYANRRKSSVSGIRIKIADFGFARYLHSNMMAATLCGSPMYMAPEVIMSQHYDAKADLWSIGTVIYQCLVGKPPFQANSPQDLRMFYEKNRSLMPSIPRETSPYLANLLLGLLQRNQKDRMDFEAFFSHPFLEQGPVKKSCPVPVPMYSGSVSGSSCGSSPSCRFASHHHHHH

SMILES | IC50 (ULK1 kinase) [nM] | IC50 (ULK2 kinase) [nM] | IC50 [1] [nM]
CC/C(Nc1cnn(C(C)C)c1)=C1/C(=O)Nc2ccc(C(=O)NCC(F)(F)F)cc21 [Example 4, (Z)-3-(1-((1-isopropyl-1H-pyrazol-4-yl)amino)propylidene)-2-oxo-N-(2,2,2-trifluoroethyl)indoline-5-carboxamide] | ≤ 10 | 10 to 100 | ≤ 100
CC/C(Nc1cnn(C2CCN(C(C)C)CC2)c1)=C1/C(=O)Nc2ccc(C(=O)N(C)CC(F)(F)F)cc21 [Example 7] | ≤ 10 | 10 to 100 | ≤ 100
CC/C(Nc1cnn(C2CCN(C(C)C)CC2)c1)=C1/C(=O)Nc2ccc(C(=O)NCC(F)(F)F)cc21 [Example 8] | ≤ 10 | 10 to 100 | ≤ 100
CC/C(Nc1cnn(C2CCN(C(C)C)CC2)c1)=C1/C(=O)Nc2ccc(C(=O)N(C)CCOC)cc21 [Example 9] | 10 to 100 |  | ≤ 100
CC/C(Nc1cnn(C2CCN(C(C)C)CC2)c1)=C1/C(=O)Nc2ccc(C(=O)NCC(C)C)cc21 [Example 16] | ≤ 10 | 10 to 100 | ≤ 100
CC/C(Nc1cnn(C2CCN(C(C)C)CC2)c1)=C1/C(=O)Nc2ccc(C(=O)NCCC#N)cc21 [Example 26] | ≤ 10 | 10 to 100 | ≤ 100
CC/C(Nc1ccc(N2CCN(C(C)C)CC2)cc1)=C1/C(=O)Nc2ccc(C(=O)NC[C@H]3CCCO3)cc21 [Example 47] | ≤ 10 | 10 to 100 | ≤ 100
CC/C(Nc1cnn(C2CCNCC2)c1)=C1/C(=O)Nc2ccc(C(=O)NC[C@H]3CCCO3)cc21 [Example 52] | ≤ 10 | 10 to 100 | ≤ 100
CC/C(Nc1cnn(C2CC3CCC(C2)N3C)c1)=C1/C(=O)Nc2ccc(C(=O)NC[C@H]3CCCO3)cc21 (some centres unmarked) [Example 53] | ≤ 10 | 10 to 100 | ≤ 100
CC/C(Nc1cnn(C2CN(C)C2)c1)=C1/C(=O)Nc2ccc(C(=O)NC[C@H]3CCCO3)cc21 [Example 54] | ≤ 10 | 10 to 100 | ≤ 100
CC/C(Nc1cnn(C2CCN(C(C)C)CC2)c1)=C1/C(=O)Nc2ccc(C(=O)NC[C@@H](C)OC)cc21 [Example 58] | 10 to 100 | 100 to 500 | ≤ 100
CC/C(Nc1ccc(N2CC3CC(C2)N3C)cc1)=C1/C(=O)Nc2ccc(C(=O)NCC(F)(F)F)cc21 [Example 60] | ≤ 10 | 10 to 100 | ≤ 100
CC/C(Nc1ccc(N2C[C@H]3CN(C)C[C@H]3C2)cc1)=C1/C(=O)Nc2ccc(C(=O)NCC(F)(F)F)cc21 [Example 61] | ≤ 10 | 10 to 100 | ≤ 100
CC/C(Nc1ccc(N2CCN(C(C)C)CC2)cn1)=C1/C(=O)Nc2ccc(C(=O)NC[C@H]3CCCO3)cc21 [Example 93] | ≤ 10 | 10 to 100 | ≤ 100
CC/C(Nc1cnn(C2CCN(C(C)C)CC2)c1)=C1/C(=O)Nc2ccc(C(=O)NCCOC)cc21 [Example 98] | ≤ 10 | 100 to 500 | ≤ 100
CC/C(Nc1cnn(CC)c1)=C1/C(=O)Nc2ccc(C(=O)NCC(F)(F)F)cc21 [Example 107] | ≤ 10 | 10 to 100 | ≤ 100
CC/C(Nc1cnn(C(F)(F)F)c1)=C1/C(=O)Nc2ccc(C(=O)NCC(F)(F)F)cc21 [Example 113] | 10 to 100 | 10 to 100 | ≤ 100
CC/C(Nc1cnn(C(F)F)c1)=C1/C(=O)Nc2ccc(C(=O)NCC(F)(F)F)cc21 [Example 114] | 10 to 100 | 10 to 100 | ≤ 100
CC/C(Nc1cnn(C2CCC2)c1)=C1/C(=O)Nc2ccc(C(=O)NCC(F)(F)F)cc21 [Example 117] | ≤ 10 | ≤ 10 | ≤ 100
CC/C(Nc1cnn(C2CCN(C(C)C)CC2)c1)=C1/C(=O)Nc2ccc(C(C)=O)cc21 [Example 123] | 100 to 500 | 100 to 500 | 100 to 300
CC/C(Nc1cnn(C(C)C)c1)=C1/C(=O)Nc2ccc(C(=O)NCC(C)C)cc21 [Example 130] | ≤ 10 | 10 to 100 | ≤ 100
CC/C(Nc1cnn(C(C)C)c1)=C1/C(=O)Nc2ccc(C(=O)NCC(C)(C)F)cc21 [Example 135] | ≤ 10 | 10 to 100 | ≤ 100
CC/C(Nc1cnn(C(C)C)c1)=C1/C(=O)Nc2ccc(C(=O)NCC3(C(F)(F)F)CC3)cc21 [Example 140] | ≤ 10 | 10 to 100 | ≤ 100
CC/C(Nc1cnn(C(C)C)c1)=C1/C(=O)Nc2ccc(C(=O)NCC3(C)CCOC3)cc21 (centres unmarked) [Example 168] | 10 to 100 | 10 to 100 | 
CC/C(Nc1cnn(C(F)(F)F)c1)=C1/C(=O)Nc2ccc(C(=O)NCC(C)C)cc21 [Example 169] | 10 to 100 | 10 to 100 | 
CC/C(Nc1cnn(C2CCOCC2)c1)=C1/C(=O)Nc2ccc(C(=O)NCC(C)(C)F)cc21 [Example 173] | ≤ 10 | ≤ 10 | 
